According to PMC7525492, “Microtiter plate-based antibody-competition assay to determine binding affinities and plasma/blood stability of CXCR4 ligands” (Scientific Reports, 2020):
Where two headings read alike, the source gives them in different places. Bridge positions count the residues as written; N and C are the ends. Square brackets hold non-standard residues; d marks the D form. Ends that are not written are not given here. Peptide text beside a SMILES is read from it. * marks the point of attachment. 2Nal = N[C@@H](Cc1ccc2ccccc2c1)C(=O)O; Benzoyl(4-F) = O=C(c1ccc(F)cc1)*; Cit = NC(=O)NCCC[C@H](N)C(=O)O

How the values were obtained:
CXCR4 [1] = biological target: T1, CXCR4 (Homo sapiens, UniProt P61073); assay: 1D9 control antibody competition on SupT1 cells; assay type: binding; conditions: PE-labelled 1D9, SupT1 cells, single experiment
Description: Small molec ule (a) or peptide
(b, c) ligands were diluted in PBS and added to precooled SupT1 cells. A constant concentration of PE-labelled
1D9-antibod y (or 12G5- APC antibod y in (c)) was added immediately afterward s. After 2 h i ncub atio n in t he d ark,
cells were washed and analyzed by flo w cyto metry.
by mea s uring t he percenta ge o f gated living cells in flo w c ytome tr y upon treatme nt with the inhibitor.
data derived from a single experiment.

CXCR4-tropic HIV-1 [2] = conditions: read-out: IC50 HIV-1; TZM-bl cells, infection rate after 3 days; mean ± SEM of 3 assays
[3] = 20 µM, up to 60 min, 37 °C, mouse plasma from a single animal
Description: Next, we evaluated whether the competition assay may be applied to measure peptide degradation in mouse plasma.
Plasma from 6 donors was pooled and stored in aliquots at − 80 °C. Mouse plasma was obtained by heart punctation of BL6 mice after cervical dislocation. Blood was 19:1 diluted with 0.16 M NaEDTA and centrifuged at 2000 rcf for 20 min at 4 °C to obtain plasma.
for 60 min at 37°C. At given time points aliquots were taken and stored at - 80°C. Activity of plasma/peptide was
determined using 12G5- antibody competition assay.

CXCR4 [4] = biological target: T1, CXCR4; assay: 12G5 antibody competition assay on SupT1 cells; assay type: binding
Description: Compounds were serially diluted in ice cold PBS and 12G5-APC antibody was diluted in cold PBS containing 1% FCS. […] Plates were incubated at 4 °C in the dark for 2 h. Afterwards cells were washed twice by centrifugation with PBS containing 1% FCS and fixed with 2% paraformaldehyde (PFA). During all pipetting steps, plates were kept cool by using a cooling pad. Antibody binding was analyzed by flow cytometry (FACS CytoFLEX; Beckman Coulter) by determination of the mean fluorescence intensity (MFI) of at least 5.000 cells (50.000 cells per well) or 1.000 cells (5.000 cells per well).
Ki calculation3 Ki=IC50/1+L/Kd
For Ki = inhibitory constant; IC50 = half maximal inhibition for 12G5 binding; [L] = 12G5 concentration; Kd = dissociation constant of 12G5.
(§1) Statistical analysis was performed in GraphPad Prism (version 8.3.0). IC50 and IC90 curves and the areas under the curves (AUC) were determined by nonlinear regression.

CXCR4-tropic HIV-1 [5] = tested on: CXCR4-tropic HIV-1; parameters: method as in PMID 25921529, PMID 30768790; conditions: cited from earlier work
in vitro = in vitro ADME, human
Description: (§2) Compounds were 150-fold diluted in human plasma or whole human blood to reach final concentrations of 20 µM. The t = 0 sample was immediately taken and stored at − 80 °C. Plasma/compound or blood/compound mixture was then transferred to 37 °C and shook at 350 rpm. At given time points samples were taken and stored at − 80 °C. For measuring the functional activity of the plasma/peptide samples, the mixtures were thawed and serially diluted in ice cold PBS (starting with 100% sample). 12G5-APC antibody competition was then performed as described before. Note, that during the competition process the samples are 1:1 diluted with the antibody and the highest plasma concentration on cells was 50%. For blood/peptide functional stability, samples were thawed and centrifuged at 14,000 rpm for 3 min at 4 °C to remove cells and debris. The supernatant was then serially diluted in PBS (starting with 100% sample) and 12G5-antibody competition assay was performed. After the 2 h incubation, the cells were washed by centrifugation (1.300 rpm, 4 °C) and 50 µL of 1-step-Fix/Lyse solution (Thermo Fisher #00-5333-54) was added for 15 min at room temperature. Afterwards cells were washed again and analyzed for bound antibody.
Statistical analysis was performed in GraphPad Prism (version 8.3.0). IC50 and IC90 curves and the areas under the curves (AUC) were determined by nonlinear regression. For half-life calculations, the IC50 values for each time point as well as the AUCs were analyzed and normalized relative to t = 0. Activities were then determined ((IC50 (t = 0) / IC50 (t)) × 100) for each time point and half-lives determined by a One-Phase-Decay model.

CXCR4 [6] = biological target: T1, CXCR4; assay: 12G5 antibody competition assay on SupT1 cells; assay type: binding; conditions: 1, 2 and 4 h incubation, Fig. S2
CXCL12 migration = conditions: cited from earlier work
[7] = Functional stability in human plasma read out by 12G5 competition; assay type: in vitro ADME; conditions: for half-life at 20 µM: human, plasma
Description: as §2, with “The” for “Compounds were 150-fold diluted in human plasma or whole human blood to reach final concentrations of 20 µM. The”, “After the 2 h incubation, the cells were washed by centrifugation (1.300 rpm, 4 °C) and 50 µL of 1-step-Fix/Lyse solution (Thermo Fisher #00-5333-54) was added for 15 min at room temperature.” left out
as §1

[8] = read-out: IC50 Migration, 100 ng/mL CXCL12, 4 h, mean ± SEM of 3 assays

T1 sequence (P61073 whole entry): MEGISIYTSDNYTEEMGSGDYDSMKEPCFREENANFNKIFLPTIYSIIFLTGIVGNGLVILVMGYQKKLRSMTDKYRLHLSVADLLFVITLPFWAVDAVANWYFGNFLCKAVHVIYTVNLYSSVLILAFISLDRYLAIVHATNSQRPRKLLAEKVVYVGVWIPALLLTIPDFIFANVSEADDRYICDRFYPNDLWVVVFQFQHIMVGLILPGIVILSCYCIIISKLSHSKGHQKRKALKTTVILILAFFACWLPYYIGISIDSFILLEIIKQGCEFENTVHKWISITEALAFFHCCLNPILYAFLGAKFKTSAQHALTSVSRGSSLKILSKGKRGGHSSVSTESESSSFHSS

Compound | IC50 (SupT1 cells; [8]) [nM] | effect on 1D9 antibody binding (CXCR4 [1]) | IC50 (CXCR4-tropic HIV-1 [2]) [nM] | inactivation in mouse plasma versus human plasma [3] | IC50 (SupT1 cells; read-out: IC50 migration, SupT1 towards CXCL12) [nM] | IC50 (CXCR4 [4]; SupT1 cells, APC-labelled 12G5, 2 h at 4 °C, mean ± SEM of 3 assays) [nM] | Ki (CXCR4 [4]; calculated from IC50 12G5 by Cheng-Prusoff, Kd of 12G5 151.5 pM) [nM] | IC50 CXCR4-tropic HIV-1 infection (CXCR4-tropic HIV-1 [5]) | half-life t1/2 in blood (in vitro; 20 µM in whole EDTA blood of an individual donor, 37 °C) [min] | half-life at 20 µM (in vitro; human, 20 µM in whole EDTA blood of an individual donor, 37 °C, read-out: half-life t1/2 in blood) [min] | stability in blood compared to plasma (in vitro; human, plasma) | IC50, IC90 and AUC after different incubation times (CXCR4 [6]) | IC50 leukemia cell migration towards CXCL12 (CXCL12 migration) | 12G5-competing activity after 24 h in plasma ([7]; 20 µM in 99.3% pooled human plasma, 37 °C, 24 h) | half-life t1/2 in plasma ([7]; 20 µM in pooled human plasma (6 donors), 37 °C, from IC50 relative to t = 0, one-phase decay) [min] | half-life t1/2 in plasma ([7]; 20 µM in pooled human plasma (6 donors), 37 °C, from IC50 relative to t = 0, one-phase decay, listed as WCS02) | inactivation in plasma with L-leucinethiol ([7]; human plasma pretreated with 300 µM L-leucinethiol (leucyl aminopeptidase inhibitor)) | half-life at 20 µM ([7]; 20 µM in plasma of an individual donor, 37 °C, read-out: half-life t1/2 in plasma) [min] | half-life at 20 µM ([7]; 20 µM in pooled human plasma (6 donors), 37 °C, from IC50 relative to t = 0, one-phase decay, read-out: half-life t1/2 in plasma) [min] | half-life at 20 µM ([7]; 20 µM in pooled human plasma, 37 °C, from areas under inhibition curves, read-out: half-life t1/2 in plasma from AUC) [min]
N=C(N)NCCC[C@H](NC(=O)[C@@H]1CSSC[C@H](NC(=O)[C@H](Cc2ccc3ccccc3c2)NC(=O)[C@H](CCCNC(=N)N)NC(=O)[C@H](CCCNC(=N)N)NC(=O)c2ccc(F)cc2)C(=O)N[C@@H](Cc2ccc(O)cc2)C(=O)N[C@@H](CCCNC(N)=O)C(=O)N[C@@H](CCCCN)C(=O)N[C@H](CCCCN)C(=O)N2CCC[C@H]2C(=O)N[C@@H](Cc2ccc(O)cc2)C(=O)N[C@@H](CCCNC(=N)N)C(=O)N[C@@H](CCCNC(N)=O)C(=O)N1)C(N)=O [BKT-140] ({Benzoyl(4-F)}-RR[2Nal]CY[Cit]K[dK]PYR[Cit]CR-NH2; disulfide 4-13; N-terminus and C-terminus assumed) | 932 ± 131 | seemed to reduce 1D9 binding | 435 ± 153 | – | – | – | – | – | – | – | – | – | – | – | – | – | – | – | – | –
IVRWSKKVPCVS [EPI-X4 WSC02] | 15800 | – | 257 ± 109 | more rapid inactivation of the peptide in mouse plasma | 16000 | 290 ± 75 | 111 ± 29 | nanomolar range | 9 | 8.9 | less stable in blood compared to plasma | No significant differences | nanomolar range | remained partially active | 10 | ~ 10 min | largely prevented WSC02 inactivation | 9.7 | 9.7 | 9.7
